Measurements: paper PMC12412044, “The Role of LVV‐H7 in Alcohol‐Induced Reward Mechanisms” (Addiction Biology, 2025)
“Also recorded” adds a separate entry of the source.

Legend:
[1] = Blood–brain barrier permeability of fluorescently labelled compounds, fluorescence microscopy of brain sections; type: in vivo, rat; details: pepstatin conjugated with carboxyfluorescein and LVV-H7 tagged with Dansyl, given i.p. to rats; brain tissue sections, fluorescence microscopy 10×
Method: (§1) LVV‐H7 was dissolved in 0.9% NaCl and administered intraperitoneally (i.p.) 15 min before experiments at doses of 0.5 and 1 mg/kg. Control groups received 0.9% NaCl injections in an equivalent volume and by the same route. Pepstatin (Sigma‐Aldrich) was dissolved in 0.9% NaCl and administered i.p. at 10 mg/kg. Ethanol (95% w/v, Polmos; Poznan, Poland) was diluted with 0.9% NaCl to a 15% w/v concentration. In the CPP procedure, ethanol at doses of 1 or 1.5 g/kg (15% w/v) was administered i.p. before each conditioning phase.
The fluorescent analogue of pepstatin was synthesized on the Tentagel S RAM resin. At first, the Fmoc‐Lys (Mtt)‐OH was introduced using COMU/DIPEA, according to the procedure described above. To remove the Mtt group, the dried resin was treated with the TFE/HFIP/TIS/DCM mixture: 1:2:0.5:6.5 (v/v). Labelling with 5(6)‐carboxyfluorescein was performed with 5(6)‐carboxyfluorescein/HOBt/DIC in a molar ratio of 1:1:1. […] The high‐resolution MS characterized the probe, and preparative HPLC assessed its purity.
We investigated the ability of synthesized LVV‐H7 and pepstatin to cross the blood–brain barrier (BBB). […] Brain tissue samples from treated rats were then analysed using fluorescence microscopy.
FIGURE 3 Rat brain sections under visible light and fluorescence microscopy 10×: (a) pepstatin labelled with carboxyfluorescein, (b) LVV‐H7 labelled with Dansyl.

[2] = test system: male Wistar rats; experiment: Ethanol conditioned place preference (CPP) test; type: in vivo, rat
Method: All conducted experiments used male Wistar rats (Experimental Medicine Center, Lublin, Poland) weighing 220 ± 20 g. The animals were housed under standard laboratory conditions (22°C, 12:12‐h light–dark cycle; light on at 8:00 AM) in groups of four rats per cage. The animals were allowed 7 days for acclimation before experiments with access to standard food (Bacutil; Motycz, Poland) and water ad libitum. After 7 days of adaptation and handling, the animals were divided into groups of 7–8 and prepared for the tests. Behavioural experiments were carried out according to the National Institute of Health Guidelines for the Care and Use of Laboratory Animals and the European Community Council Directive for Care and Use of Laboratory Animals (86/609/EEC). The Local Ethics Committee approved them. Additionally, we confirm that ARRIVE guidelines report the study.
as §1
In our experiments, eight identical rectangular CPP boxes (60 cm × 35 cm × 30 cm), each one composed of three compartments: two large compartments (25 cm × 35 cm) and a smaller central grey compartment (10 cm × 10 cm), were used. In one of the compartments, the inside walls were white, and the floor held a large grid, whereas the walls of the other compartment were painted black, and the floor held a narrow grid. Illumination in the testing room was adjusted so that the environmental (visual and tactile) cues would not produce a significant baseline preference for a specific compartment. Both large compartments were separated from a central grey area by the removable guillotine doors, the opening of which provided access to the larger compartments. The apparatus was thoroughly cleaned between each test procedure and then wiped with dry paper towels to neutralize odour traces. […] The CPP performance was measured by computerized video tracking.
The CPP paradigm was carried out according to an unbiased procedure with minor modifications. […] The time spent in each compartment was measured during the pre‐test phase. […]
During the second phase (pre‐conditioning test), 24 h after the habituation session, rats were placed in the central grey square compartment of the CPP apparatus with free access to all compartments for 15 min. The time spent in each compartment was recorded with a computer programme. […]

[3] = test system: NMDA receptor (NMDAR1); experiment: Western blot densitometry of NMDA receptor expression in CNS structures after the CPP test; type: in vivo, rat; details: ethanol alone versus control
Method: (§2) Brain structures and spinal cords isolated from the animals were homogenized in 50 μL of the buffer consisting of 50 mM Tris/HCl, pH 7.6 and 150 mM NaCl in the presence of a proteinase inhibitor cocktail (Roche). Cells were homogenized thrice on ice by sonication (5 s each). The homogenate was centrifuged at 25 000g for 30 min at 4°C. The final protein concentration in the supernatant was determined using a Bradford assay kit (Sigma‐Aldrich).
(§3) One‐dimensional polyacrylamide gel electrophoresis was performed after standardizing the samples according to their total protein concentration. Thirty microlitres of the Laemmli sample buffer (Bio‐Rad, USA) were added to the subsequent volume of each sample, followed by incubation for 5 min at 90°C in a Thermomixer (Eppendorf). According to the Bio‐Rad protocol, proteins were separated on the 10% SDS‐PAGE.
(§4) Mini Protean system and electrotransferred onto the PVDF membrane (Bio‐Rad, USA). The adequate antibodies confirmed the presence of proteins (Biorbyt, UK). […]
(§5) Protein expression levels were measured using standard Western blotting. SDS‐PAGE was performed after standardizing protein extracts based on total protein concentration (determined via the Bradford method), immunotransfer, and immunodetection. Densitometric analysis was conducted to quantify protein levels in all structures from five animals. […]

[4] = test system: DARPP‐32; experiment: Western blot densitometry of DARPP‐32 expression in CNS structures after the CPP test; type: in vivo, rat; details: alcohol alone
Method: as §2, §3, §4, §5

[5] = test system: μ‐opioid receptor (OPRM1); experiment: Western blot densitometry of OPRM1 expression in CNS structures after the CPP test; type: in vivo, rat; details: ethanol alone versus control
Method: as §2, §3, §4, §5

| Molecule | ability to cross the blood–brain barrier (BBB) [1] | enzyme involved in the production of fragment VV-H7 (proteins identified in active Fraction 29 of spinal cord homogenate, nanoLC-MALDI-MS/MS) | degradation products of LVV-H7 after incubation with homogenates (rat spinal cord homogenate, DEAE fractions, LVV-hemorphin 60 μg/mL, 10 μL in 40 μL, Tris–HCl pH 7.4, 37°C, 1 h, read-out mass spectrometry) | expression of ethanol-CPP after pepstatin pretreatment ([2]; pepstatin 10 mg/kg i.p. 5 min before each ethanol injection (1.5 g/kg, 15% w/v, i.p.) during 10-day conditioning, p < 0.001) | time spent in the drug-associated compartment, pepstatin given alone ([2]; pepstatin 10 mg/kg i.p. before each conditioning session, no ethanol, versus 0.9% NaCl) | NMDA receptor expression following EtOH administration [3] | DARPP-32 expression after alcohol administration [4] | time spent in the drug-associated compartment on the CPP test day ([2]; ethanol 1.0 g/kg i.p., 10-day conditioning, versus 0.9% NaCl group) | time spent in the drug-paired compartment on the CPP test day (expression of ethanol-induced CPP) ([2]; ethanol 1.5 g/kg (15% w/v) i.p., 10-day conditioning, versus 0.9% NaCl group) | OPRM1 expression following EtOH administration [5] |
| --- | --- | --- | --- | --- | --- | --- | --- | --- | --- | --- |
| CC(C)C[C@H](N)C(=O)N[C@H](C(=O)N[C@H](C(=O)N[C@@H](Cc1ccc(O)cc1)C(=O)N1CCC[C@H]1C(=O)N[C@@H](Cc1c[nH]c2ccccc12)C(=O)N[C@H](C(=O)N[C@@H](CCC(N)=O)C(=O)N[C@@H](CCCNC(=N)N)C(=O)N[C@@H](Cc1ccccc1)C(=O)O)[C@@H](C)O)C(C)C)C(C)C [LVV‐H7, LVV‐hemorphin‐7] | successfully cross the BBB | puromycin‐sensitive aminopeptidase (PSA) | VVYPWTQRF, YPWTQRF, PWTQRF and LVVYPWTQR fragments were mainly revealed | – | – | – | – | – | – | – |
| pepstatin | successfully cross the BBB | – | – | significantly blocked the expression of ethanol‐CPP | did not change the time spent | – | – | – | – | – |
| CCO [ethanol] | – | – | – | – | – | statistically significant upregulation | upregulation | did not change the time spent; also recorded: did not evoke any rewarding effects | spent significantly more time | statistically significant upregulation |
